The values that follow come from patent US20070157323A1, “In vivo odorant receptor systems and their uses” (priority 2003, published 2007).

SMILES strings stand for the structures.

The subject of test [1] is generalist predator. Conditions: volatiles released individually, Nicotiana attenuata; Kessler et al.; cited from earlier work.
The test system of test [2] is Oedaleus decorus asiaticus. Conditions: both sexes; Chen et al.; cited from earlier work.
The test system of test [3] is Angaracris barabensis. Conditions: both sexes; Chen et al.; cited from earlier work.
Test [4] deals with V. pensylvanica. Conditions: Davis et al.; MacDonald et al.; McGovern et al.; cited from earlier work.
Test [5] addresses T1, AgOr2 (Anopheles gambiae, UniProt Q8WTE6).
T1 construct: expressed in transfected cells; host or cells: Transgenic Drosophila, ab3A olfactory receptor neuron lacking Or22a/Or22b (Δhalo), GAL4-UAS
T1 sequence (Q8WTE6 1-378): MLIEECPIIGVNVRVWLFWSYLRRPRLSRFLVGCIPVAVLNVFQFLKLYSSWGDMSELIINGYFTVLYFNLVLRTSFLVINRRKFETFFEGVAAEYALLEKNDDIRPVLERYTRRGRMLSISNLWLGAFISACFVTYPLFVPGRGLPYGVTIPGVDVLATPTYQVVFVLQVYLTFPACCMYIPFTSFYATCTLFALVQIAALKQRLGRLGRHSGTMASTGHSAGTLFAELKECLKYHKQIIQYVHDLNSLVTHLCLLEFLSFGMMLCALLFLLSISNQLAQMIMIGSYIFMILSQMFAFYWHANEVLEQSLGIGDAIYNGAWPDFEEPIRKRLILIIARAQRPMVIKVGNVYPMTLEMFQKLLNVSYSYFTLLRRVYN
T1 sequence (Q9VNB5 1-486 partner): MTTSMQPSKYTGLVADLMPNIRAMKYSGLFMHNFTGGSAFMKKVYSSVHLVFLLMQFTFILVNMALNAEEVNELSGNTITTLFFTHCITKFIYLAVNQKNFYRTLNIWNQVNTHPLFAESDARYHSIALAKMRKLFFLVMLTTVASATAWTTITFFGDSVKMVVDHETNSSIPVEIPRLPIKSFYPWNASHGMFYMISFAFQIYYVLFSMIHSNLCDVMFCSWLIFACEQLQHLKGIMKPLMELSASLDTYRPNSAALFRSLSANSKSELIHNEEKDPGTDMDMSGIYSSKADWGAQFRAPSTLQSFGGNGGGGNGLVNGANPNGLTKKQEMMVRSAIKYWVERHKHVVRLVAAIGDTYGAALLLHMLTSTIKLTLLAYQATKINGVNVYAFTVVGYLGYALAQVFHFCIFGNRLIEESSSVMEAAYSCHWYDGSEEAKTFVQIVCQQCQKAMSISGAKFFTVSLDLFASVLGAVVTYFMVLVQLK
Put plainly: Single-unit electrophysiology of Drosophila ab3A neuron (Δhalo) expressing AgOr2. Format: in vivo. Conditions: liquid odors diluted 10^−4, solid odors 0.2 mg/ml in paraffin oil, 0.5 s pulse, FIG. 1b. How it is done: In summary, odorant receptors are introduced specifically into Δab3A using the GAL4/UAS system and Or22a-GAL4 is used to drive expression from a UAS-Or construct. The odorant response of the neuron (Δab3A:OrX) is assayed electrophysiologically.
To investigate the function of the A. gambiae odorant receptor genes AgOr1 and AgOr2 directly, these genes were expressed in the Drosophila olfactory receptor neuron that lacks odor response due to the deletion of its endogenous receptor genes, Or22a and Or22b using an Or22a promoter and the GAL4-UAS system.
AgOr1 and AgOr2 were expressed in the Δhalo background using the GAL4-UAS system. Specifically AgOr1 or AgOr2 was placed under the control of a UAS and expressed using the 22a-GAL4 driver so as to drive its expression in ab3A cells. […]
Action potentials of the ORNs in a sensillum were recorded by placing an electrode through the sensillum wall into contact with the lymph that bathes the dendrites. […] Recordings were analyzed offline in IGOR-Pro (WaveMetrics, Lake Oswego, Oreg.).
Odor stimuli were presented from Pasteur pipettes holding solutions of chemicals in paraffin oil on filter paper. […] Responses of the ab3A neurons were quantified by subtracting the number of impulses (i.e., spikes) in 500 ms of spontaneous activity from the number in the 500 ms after the onset of odor stimulation (FIG. 1).

The test system of test [6] is Rhagoletis pomonella flies. Conditions: Nojima et al.; cited from earlier work.
Test [7] relates to Apol PBP3. Conditions: 3H-labeled ligand; cited from earlier work.
Test [8] relates to Aper PBP1. Conditions: cited from earlier work.
In test [9] the test system is Apol PBP1a. Conditions: 3H-labeled ligand; cited from earlier work.
Test [10] concerns the target T2, Aper PBP2 (Antheraea pernyi, UniProt Q17078).
T2 construct: from tissue; host or cells: Sensory hair homogenates of A. pernyi (study quoted from the literature)
T2 sequence (Q17078 23-164): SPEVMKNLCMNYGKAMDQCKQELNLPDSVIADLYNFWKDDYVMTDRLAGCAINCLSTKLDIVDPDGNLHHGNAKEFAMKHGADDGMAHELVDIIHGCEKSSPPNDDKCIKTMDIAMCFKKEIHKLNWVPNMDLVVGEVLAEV
Conditions: cited from earlier work.

Test [11] concerns ab3A neuron. Conditions: cited from earlier work; for strongest responses of the A neuron: sensilla expressing Or22a and Or22b.
Test [12] deals with B neuron. Conditions: sensilla expressing Or22a and Or22b; cited from earlier work.
Test [13] concerns lepidopteran. Conditions: Nicotiana attenuata; Kessler et al.; cited from earlier work.

For `CC(C)=CCC[C@]1(C)[C@H]2CC=C(C)[C@@H]1C2` (relative stereo) [cis-alpha-bergamotene], the “egg predation rates by a generalist predator” value (“egg predation rates” for short) in test [1] is recorded as “increased egg predation rates”.

On to `CCCCCCCO` [1-heptanol], for which the EAG responses result in [2] and in test [3] was “Strong EAG responses” in each case.

For `CCCCCCO` [1-hexanol], the EAG responses entry in [2] and in test [3] was “Strong EAG responses” in each case.

For `CC=CC=CCOC(=O)CCC` [2,4-Hexadienyl butyrate], the “attraction of V. pensylvanica” value in test [4] is “attract”.

With `CC=CC=CCOC(=O)C(C)C` [2,4-hexadienyl isobutyrate], the “attraction of V. pensylvanica” value in test [4] is recorded as “attract”.

On to `CC=CC=CCOC(=O)CC` [2,4-hexadienyl propionate], for which the “attraction of V. pensylvanica” value in test [4] was “attract”.

As for `Cc1ccccc1O` [2-methylphenol], the “odor response conferred by AgOr2” value in test [5] was “strong response”.

With `CC(C)CCO` [3-methylbutan-1-ol], in test [6], the EAD activity result is “Consistent EAD activity”.

For `C=C/C=C(\C)CCC=C(C)C` [4,8-dimethyl-1,3(E),7-nonatriene], the EAD activity entry in test [6] is “Consistent EAD activity”.

For `CCCC/C=C\CCC/C=C/CCCCCOC(C)=O` [AC1, (E,Z)-6,11-hexadecadienyl acetate], the “binding to Apol PBP3” value in test [7] is “bound”. Besides, the “binding affinity to Aper PBP1” value in [8] is on record as “showed binding affinity”. For the same compound, the “binding to Apol PBP1a” value in test [9] is “bound”.

Regarding `CCCC/C=C\CCC/C=C/CCCCC=O` [ALD, (E,Z)-6,11-hexadecadienal], the “binding affinity to Aper PBP2” value in [10] is “showed binding affinity”. In addition, the “binding to Apol PBP3” value in test [7] is “no binding”. Further, in test [9], the “binding to Apol PBP1a” value is given as “no binding”.

As to `CCC/C=C/C=O` [E-2-hexen-1-al], the EAG responses entry in test [2] and in test [3] was “Strong EAG responses” in each case.

Turning to `CCC/C=C/CO` [E-2-hexen-1-ol], the EAG responses result in test [2] and in test [3] was “Strong EAG responses” each time.

For the compound `CC/C=C/CCO` [E-hexen-3-ol-1], the EAG responses entry in test [2] and in [3] was “Strong EAG responses” in each case.

With `CCC/C=C\CO` [Z-hexen-2-ol-1], the EAG responses entry in test [2] and in test [3] was “Strong EAG responses” each time.

For the compound `CC/C=C\CCOC(C)=O` [Z-hexen-3-yl acetate], the EAG responses entry in test [2] and in test [3] was “Strong EAG responses” in each case.

Take `CCCCCC(=O)OCCCC` [butyl hexanoate]: the EAD activity result in [6] is “Consistent EAD activity”.

On to `CC/C=C\CCO` [cis-3-hexen-1-ol], for which the “egg predation rates” value in test [1] is “increased egg predation rates”.

On to `CC(=O)CCC1=C(C)CCCC1(C)C` [dihydro-beta-ionone], for which the EAD activity entry in [6] was “Consistent EAD activity”.

Consider `CCOC(C)=O` [ethyl acetate], for which the EAD activity entry in test [6] is listed as “Consistent EAD activity”. The “strongest responses of the A neuron” value in [11] was “strongest responses”.

Regarding `CCCC(=O)OCC` [ethyl butyrate], in test [11] (in vivo), the “sensitivity of ab3A” value was “highly sensitive”. Further, the “strongest responses of the A neuron” value in [11] is listed as “strongest responses”.

As for `CCCCCC(C)=O` [heptanone], the “strongest responses of the B neuron” value in test [12] is given as “strongest responses”.

On to `CCCCCCCOC(=O)CCC` [heptyl butyrate], for which the “attraction of V. pensylvanica” value in [4] is “attract”.

Take `CCCCCCO` [hexanol]: the “strongest responses of the B neuron” value in [12] is on record as “strongest responses”.

As for `CC(=O)OCCC(C)C` [isoamyl acetate], the EAD activity entry in test [6] is listed as “Consistent EAD activity”.

For `C=CC(C)(O)CCC=C(C)C` (stereo not shown) [linalool], the “egg predation rates” value in test [1] is “increased egg predation rates”. Further, the lepidopteran oviposition rates result in [13] is recorded as “decreased lepidopteran oviposition rates”.

For `C=CC(O)CCCCC` (stereo not shown) [octenol], in [12], the “strongest responses of the B neuron” value is on record as “strongest responses”.

Take `CCCCCCCCOC(=O)CCC` [octyl butyrate]: the “attraction of V. pensylvanica” value in test [4] is listed as “attract”.

With `CCCCCOC(C)=O` [pentyl acetate], the “strongest responses of the A neuron” value in test [11] was “strongest responses”.
